Results on 24 molecules are retold here after patent publication US9771358B2, “Dihydropyrimidine compounds and their application in pharmaceuticals” (SUNSHINE LAKE PHARMA CO., LTD., priority 2014, dated 2017).

The subject of this test is HBV. Description: In-vitro anti-HBV activity in stable HBV-producing cell line (HepG2.2.15), HBV DNA by qPCR. Format: cell-based. The conditions noted are these: Hepatitis B virus, 168 h; HepG2.2.15 cells, HBV DNA in culture fluid, day 7, top concentration 16.4 μM. Here is the method:
HBV DNA contents in cell culture fluid were detected by the qPCR-based assay and 50% effective concentration (EC50) values of the compounds against HBV were calculated. Specific procedures are as follows:
HepG2.2.15 cells were seeded into each well of 96-well plates, 40,000 cells per well. Cells were treated with cell culture medium containing compounds with different concentrations for 24 hours after cell seeding. The final concentration of each compound was 16.4 μM in each well and each compound was diluted to desired concentration using 3-fold gradient dilution protocol, 9 diluted points in duplicate. The culture mediums containing the compounds were refreshed on day 4 post cell seeding. Culture media were collected from the HepG2.2.15 plates on day 7 post cell seeding followed by HBV DNA extraction.
HBV DNA extraction: The HBV DNA extraction was performed using QIAamp 96 DNA Blood Kit (QIAGEN 51161).
PCR for quantification: PCR mix was prepared according to PCR system. PCR mix was dispensed to 96-well optical reaction plates (special for quantification). The standard diluted proportionally was added. Then the sample was added; The plates were sealed with optical adhesive film; PCR system was performed according to programs.
Percentage of HBV inhibition of DNA replication by compound was calculated using the following equation: % Inh.=[1-HBV DNA quantity of sample/HBV DNA quantity of DMSO control]×100.
Calculating EC50 value of compounds to HBV replication: the EC50 values were calculated based on “four-parameter logistic equation” and using GraphPad Prism 5 analysis software.
(Real-time PCR tracks product formation cycle by cycle.)

SMILES strings stand for the structures.

What is called EC50 is the concentration that produces a half-maximal response. Read a high EC50 as weaker potency. As to `CCOC(=O)C1=C(CN2CCOC(CCC(=O)O)C2)NC(c2nccs2)=NC1c1ccc(F)cc1Br` (racemic) [contrast 1, 3-(4-((6-(2-bromo-4-fluorophenyl)-5-(ethoxycarbonyl)-2-(thiazol-2-yl)-3,6-dihydropyrimidin-4-yl)methyl)morpholin-2-yl)propanoic acid, reference compound], the EC50 came to 260 nM.
The figure for `CCOC(=O)C1=C(CN2CCOC(CCC(=O)O)C2)NC(c2nccs2)=NC1c1ccc(F)cc1Cl` (racemic) [contrast 2, 3-(4-((6-(2-chloro-4-fluorophenyl)-5-(ethoxycarbonyl)-2-(thiazol-2-yl)-3,6-dihydropyrimidin-4-yl)methyl)morpholin-2-yl)propanoic acid, reference compound] is 360 nM.
Then `COC(=O)C1=C(CN2CCOC(CCC(=O)O)C2)NC(c2nccs2)=NC1c1ccc(F)cc1Cl` (racemic) [contrast 3, 3-(4-((6-(2-chloro-4-fluorophenyl)-5-(methoxycarbonyl)-2-(thiazol-2-yl)-3,6-dihydropyrimidin-4-yl)methyl)morpholin-2-yl)propanoic acid, reference compound], with 290 nM; and `COC(=O)C1=C(CN2CCOC(CCC(=O)O)C2)NC(c2nccs2)=NC1c1ccc(F)cc1Br` (racemic) [contrast 4, 3-(4-((6-(2-bromo-4-fluorophenyl)-5-(methoxycarbonyl)-2-(thiazol-2-yl)-3,6-dihydropyrimidin-4-yl)methyl)morpholin-2-yl)propanoic acid, reference compound], with 250 nM.
Then `CCOC(=O)C1=C(CN2CCOC(CCC(=O)O)C2)NC(c2nccs2)=NC1c1ccc(Cl)cc1Cl` (racemic) [contrast 5, 3-(4-((6-(2,4-dichlorophenyl)-5-(ethoxycarbonyl)-2-(thiazol-2-yl)-3,6-dihydropyrimidin-4-yl)methyl)morpholin-2-yl)propanoic acid, reference compound], with 230 nM; and `COC(=O)C1=C(CN2CCOC(CCC(=O)O)C2)NC(c2nccs2)=NC1c1ccc(Cl)cc1Cl` (racemic) [contrast 6, 3-(4-((6-(2,4-dichlorophenyl)-5-(methoxycarbonyl)-2-(thiazol-2-yl)-3,6-dihydropyrimidin-4-yl)methyl)morpholin-2-yl)propanoic acid, reference compound], with 210 nM.
Consider `CCOC(=O)C1=C(CN2CCOCC2CCC(=O)O)NC(c2nccs2)=NC1c1ccc(F)cc1Cl` (racemic) [contrast 7, 3-(4-((6-(2-chloro-4-fluorophenyl)-5-(ethoxycarbonyl)-2-(thiazol-2-yl)-3,6-dihydropyrimidin-4-yl)methyl)morpholin-3-yl)propanoic acid, reference compound], for which the response was half-maximal at 92 nM (EC50).
The figure for `COC(=O)C1=C(CN2CCOCC2CCC(=O)O)NC(c2nccs2)=NC1c1ccc(F)cc1Cl` (racemic) [contrast 8, 3-(4-((6-(2-chloro-4-fluorophenyl)-5-(methoxycarbonyl)-2-(thiazol-2-yl)-3,6-dihydropyrimidin-4-yl)methyl)morpholin-3-yl)propanoic acid, reference compound] is 90 nM.
The figure for `CCOC(=O)C1=C(CN2CCOCC2CCC(=O)O)NC(c2nccs2)=NC1c1ccc(Cl)cc1Cl` (racemic) [contrast 9, 3-(4-((6-(2,4-dichlorophenyl)-5-(ethoxycarbonyl)-2-(thiazol-2-yl)-3,6-dihydropyrimidin-4-yl)methyl)morpholin-3-yl)propanoic acid, reference compound] is 63 nM; for `COC(=O)C1=C(CN2CCOCC2CCC(=O)O)NC(c2nccs2)=NC1c1ccc(Cl)cc1Cl` (racemic) [contrast 10, 3-(4-((6-(2,4-dichlorophenyl)-5-(methoxycarbonyl)-2-(thiazol-2-yl)-3,6-dihydropyrimidin-4-yl)methyl)morpholin-3-yl)propanoic acid, reference compound] it is 59 nM.
Then `CCOC(=O)C1=C(CN2CCOCC2CCC(=O)O)NC(c2nccs2)=NC1c1ccc(F)cc1Br` (racemic) [contrast 11, 3-(4-((6-(2-bromo-4-fluorophenyl)-5-(ethoxycarbonyl)-2-(thiazol-2-yl)-3,6-dihydropyrimidin-4-yl)methyl)morpholin-3-yl)propanoic acid, reference compound], with 80 nM; and `COC(=O)C1=C(CN2CCOCC2CCC(=O)O)NC(c2nccs2)=NC1c1ccc(F)cc1Br` (racemic) [contrast 12, 3-(4-((6-(2-bromo-4-fluorophenyl)-5-(methoxycarbonyl)-2-(thiazol-2-yl)-3,6-dihydropyrimidin-4-yl)methyl)morpholin-3-yl)propanoic acid, reference compound], with 75 nM; and `CCOC(=O)C1=C(CN2CCO[C@H](CC(C)C(=O)O)C2)NC(c2nccs2)=N[C@H]1c1ccc(F)cc1Br` (stereo partly drawn) [Example 3, 3-((R)-4-(((R)-6-(2-Bromo-4-fluorophenyl)-5-(ethoxycarbonyl)-2-(thiazol-2-yl)-3,6-dihydropyrimidin-4-yl)methyl)morpholin-2-yl)-2-methylpropanoic acid], with 135 nM.
`CCOC(=O)C1=C(CN2CCO[C@H](C(C)CC(=O)O)C2)NC(c2nccs2)=N[C@H]1c1ccc(F)cc1Br` (stereo partly drawn) [Example 4, 3-((R)-4-(((R)-6-(2-Bromo-4-fluorophenyl)-5-(ethoxycarbonyl)-2-(thiazol-2-yl)-3,6-dihydropyrimidin-4-yl)methyl)morpholin-2-yl)butanoic acid] had an EC50 of 116 nM.
With `CCOC(=O)C1=C(CN2CCO[C@H](C)[C@H]2CCC(=O)O)NC(c2nccs2)=N[C@H]1c1ccc(F)cc1Br` [Example 5, 3-((2R,3R)-4-(((R)-6-(2-Bromo-4-fluorophenyl)-5-(ethoxycarbonyl)-2-(thiazol-2-yl)-3,6-dihydropyrimidin-4-yl)methyl)-2-methylmorpholin-3-yl)propanoic acid], it took 306 nM to reach a half-maximal effect (EC50).
Then `CCOC(=O)C1=C(CN2CCO[C@H](CCCCC(=O)O)C2)NC(c2nccs2)=N[C@H]1c1ccc(F)cc1Br` [Example 7, 5-((R)-4-(((R)-6-(2-Bromo-4-fluorophenyl)-5-(ethoxycarbonyl)-2-(thiazol-2-yl)-3,6-dihydropyrimidin-4-yl)methyl)morpholin-2-yl)pentanoic acid], with 72 nM; and `CCOC(=O)C1=C(CN2CCOC[C@H]2CCC(=O)O)NC(c2nccs2)=N[C@H]1c1ccc(F)cc1Br` [Example 8, 3-((R)-4-(((R)-6-(2-Bromo-4-fluorophenyl)-5-(ethoxycarbonyl)-2-(thiazol-2-yl)-3,6-dihydropyrimidin-4-yl)methy)morpholin-3-yl)propanoic acid], with 25 nM.
The figure for `COC(=O)C1=C(CN2CCOC[C@H]2CCC(=O)O)NC(c2nccs2)=N[C@H]1c1ccc(F)cc1Br` [Example 14, 3-((R)-4-(((R)-6-(2-Bromo-4-fluorophenyl)-5-(methoxycarbonyl)-2-(thiazol-2-yl)-3,6-dihydropyrimidin-4-yl)methyl)morpholin-3-yl)propanoic acid] is 140 nM.
The figure for `CCOC(=O)C1=C(CN2CCOC[C@@H]2CCC(=O)O)NC(c2nccs2)=N[C@H]1c1ccc(F)cc1Br` [Example 15, 3-((S)-4-(((R)-6-(2-Bromo-4-fluorophenyl)-5-(ethoxycarbonyl)-2-(thiazol-2-yl)-3,6-dihydropyrimidin-4-yl)methyl)morpholin-3-yl)propanoic acid] is 7.94 nM; for `COC(=O)C1=C(CN2CCOC[C@@H]2CCC(=O)O)NC(c2nccs2)=N[C@H]1c1ccc(F)cc1Br` [Example 16, 3-((S)-4-(((R)-6-(2-Bromo-4-fluorophenyl)-5-(methoxycarbonyl)-2-(thiazol-2-yl)-3,6-dihydropyrimidin-4-yl)methyl)morpholin-3-yl)propanoic acid] it is 9 nM; for `CCOC(=O)C1=C(CN2CCOC[C@@H]2CCC(=O)O)NC(c2nccs2)=N[C@H]1c1ccc(F)cc1Cl` [Example 17, 3-((S)-4-(((R)-6-(2-Chloro-4-fluorophenyl)-5-(ethoxycarbonyl)-2-(thiazol-2-yl)-3,6-dihydropyrimidin-4-yl)methyl)morpholin-3-yl)propanoic acid] it is 12 nM.
Take `COC(=O)C1=C(CN2CCOC[C@@H]2CCC(=O)O)NC(c2nccs2)=N[C@H]1c1ccc(F)cc1Cl` [Example 18, 3-((S)-4-(((R)-6-(2-Chloro-4-fluorophenyl)-5-(methoxycarbonyl)-2-(thiazol-2-yl)-3,6-dihydropyrimidin-4-yl)methyl)morpholin-3-yl)propanoic acid]: the EC50 turned out to be 10 nM. The EC50 values of the last two molecules are within 1.5-fold of each other.
The molecule `CCOC(=O)C1=C(CN2CCOC[C@@H]2CCC(=O)O)NC(c2nccs2)=N[C@H]1c1ccc(Cl)cc1Cl` [Example 19, 3-((S)-4-(((R)-6-(2,4-Dichlorophenyl)-5-(ethoxycarbonyl)-2-(thiazol-2-yl)-3,6-dihydropyrimidin-4-yl)methyl)morpholin-3-yl)propanoic acid] displayed an EC50 of 6 nM.
The figure for `COC(=O)C1=C(CN2CCOC[C@@H]2CCC(=O)O)NC(c2nccs2)=N[C@H]1c1ccc(Cl)cc1Cl` [Example 20, 3-((S)-4-(((R)-6-(2,4-Dichlorophenyl)-5-(methoxycarbonyl)-2-(thiazol-2-yl)-3,6-dihydropyrimidin-4-yl)methyl)morpholin-3-yl)propanoic acid] is 5.5 nM.
